Laboratory results: article PMC10449877, “Structural basis of peptidoglycan synthesis by E. coli RodA-PBP2 complex” (Nature Communications, 2023)

How the values were obtained:
[1] = molecular target: T1, E. coli RodA-PBP2 fusion (PBP2 TP domain) (Escherichia coli, UniProt P0AD65); experiment: fluorescent bocillin labelling, SDS-PAGE; assay type: binding; conditions: covalent; TP active site of PBP2; labelled compound; 15 min
T1 construct: gene mrdA; with Peptidoglycan glycosyltransferase MrdB
T1 sequence (P0AD65 1-633): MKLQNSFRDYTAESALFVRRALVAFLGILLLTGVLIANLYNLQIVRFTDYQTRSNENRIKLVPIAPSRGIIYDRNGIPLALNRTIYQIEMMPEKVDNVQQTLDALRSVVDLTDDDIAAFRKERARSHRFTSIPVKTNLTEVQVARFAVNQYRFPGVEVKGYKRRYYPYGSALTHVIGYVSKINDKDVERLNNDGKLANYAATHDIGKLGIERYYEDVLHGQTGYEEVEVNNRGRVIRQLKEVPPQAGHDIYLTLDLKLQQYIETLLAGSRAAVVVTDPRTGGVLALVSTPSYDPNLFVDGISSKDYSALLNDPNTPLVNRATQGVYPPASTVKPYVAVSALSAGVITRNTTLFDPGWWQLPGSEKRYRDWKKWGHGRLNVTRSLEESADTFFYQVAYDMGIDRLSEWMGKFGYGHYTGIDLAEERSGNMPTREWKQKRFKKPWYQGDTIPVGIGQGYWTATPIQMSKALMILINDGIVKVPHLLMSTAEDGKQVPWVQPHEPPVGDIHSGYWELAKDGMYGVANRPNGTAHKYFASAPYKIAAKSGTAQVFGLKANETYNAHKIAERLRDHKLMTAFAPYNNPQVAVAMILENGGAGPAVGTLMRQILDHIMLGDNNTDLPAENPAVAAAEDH
T1 sequence (P0ABG7 1-370 partner): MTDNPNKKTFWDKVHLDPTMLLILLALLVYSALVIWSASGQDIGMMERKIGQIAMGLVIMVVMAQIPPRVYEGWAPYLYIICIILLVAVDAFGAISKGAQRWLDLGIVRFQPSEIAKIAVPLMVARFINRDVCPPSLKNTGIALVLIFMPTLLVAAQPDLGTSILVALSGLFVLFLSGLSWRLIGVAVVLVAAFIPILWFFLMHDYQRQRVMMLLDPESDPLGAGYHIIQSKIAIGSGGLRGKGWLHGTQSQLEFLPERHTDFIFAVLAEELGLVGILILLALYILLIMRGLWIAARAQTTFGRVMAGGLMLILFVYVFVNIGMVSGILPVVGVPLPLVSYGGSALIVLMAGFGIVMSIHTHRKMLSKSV

[2] = molecular target: T2, E. coli PBP2 (Escherichia coli str. K-12 substr. …, UniProt P0AD65 1-633); experiment: cryo-EM structure; single-particle cryo-EM of the RodA-PBP2 fusion (one chain, TSGSGSGS linker) in POPG / MSP1E3D1 nanodiscs; 20 mM HEPES pH 7, 150 mM NaCl, 1 mM TCEP; 0.66 mg/ml (5.9 uM); conditions: both partners purified
T2 construct: K-12 substr; MG1655, UniProt P0AD65; residues 10-343, 401-430, 457-540 and 569-612 built in the map; PBP2 Gln99 is residue 476 in the fusion; the poly-histidine tag of the fusion is written on m1; also called transpeptidase (TP); source: E. coli BL21(DE3) pLysS, purified (Ni-NTA, SEC), reconstituted in POPG / MSP1E3D1 nanodiscs
T2 sequence (looked up): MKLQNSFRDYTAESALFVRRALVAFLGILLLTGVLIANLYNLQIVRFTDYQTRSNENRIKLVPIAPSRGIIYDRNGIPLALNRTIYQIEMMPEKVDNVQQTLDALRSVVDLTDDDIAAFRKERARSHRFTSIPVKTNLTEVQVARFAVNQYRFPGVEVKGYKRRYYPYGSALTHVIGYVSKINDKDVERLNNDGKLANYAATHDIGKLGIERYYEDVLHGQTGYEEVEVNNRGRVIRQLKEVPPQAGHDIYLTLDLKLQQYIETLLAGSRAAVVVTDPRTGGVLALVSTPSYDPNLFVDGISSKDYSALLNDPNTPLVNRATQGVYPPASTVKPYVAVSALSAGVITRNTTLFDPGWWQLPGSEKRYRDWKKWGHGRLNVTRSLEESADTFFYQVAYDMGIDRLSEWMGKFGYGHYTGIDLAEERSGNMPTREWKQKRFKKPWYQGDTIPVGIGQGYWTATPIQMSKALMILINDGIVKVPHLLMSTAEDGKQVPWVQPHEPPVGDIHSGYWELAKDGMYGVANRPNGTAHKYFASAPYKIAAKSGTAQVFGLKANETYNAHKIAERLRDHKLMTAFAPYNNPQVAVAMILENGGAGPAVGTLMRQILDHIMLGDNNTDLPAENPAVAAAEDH

Row | binding result [2] | Molecule | fluorescent bocillin labelling, SDS-PAGE [1]
1 |  | Cc1cc(C)n2c1C=C1C=CC(CCC(=O)Nc3ccc(OCC(=O)N[C@@H]4C(=O)N5[C@@H]4SC(C)(C)[C@@H]5C(=O)O)cc3)=[N+]1[B-]2(F)F [bocillin] | The TP domain binds (and is covalently modified by) a fluorescent penicillin mimic bocillin
2 | binds | E. coli RodA (enzyme, UniProt P0ABG7 1-370, looked up, RodA, Escherichia coli str; K-12 substr; MG1655; UniProt ID printed as '0ABG7'; residues 9-93 and 109-364 built in the map; They are written as two molecules for the pair row; No TEV cleavage is described; also called SEDS glycosyltransferase (GT); RodA part of the RodA-PBP2 fusion; source: E. coli BL21(DE3) pLysS, purified (Ni-NTA, SEC), reconstituted in POPG / MSP1E3D1 nanodiscs) MTDNPNKKTFWDKVHLDPTMLLILLALLVYSALVIWSASGQDIGMMERKIGQIAMGLVIMVVMAQIPPRVYEGWAPYLYIICIILLVAVDAFGAISKGAQRWLDLGIVRFQPSEIAKIAVPLMVARFINRDVCPPSLKNTGIALVLIFMPTLLVAAQPDLGTSILVALSGLFVLFLSGLSWRLIGVAVVLVAAFIPILWFFLMHDYQRQRVMMLLDPESDPLGAGYHIIQSKIAIGSGGLRGKGWLHGTQSQLEFLPERHTDFIFAVLAEELGLVGILILLALYILLIMRGLWIAARAQTTFGRVMAGGLMLILFVYVFVNIGMVSGILPVVGVPLPLVSYGGSALIVLMAGFGIVMSIHTHRKMLSKSV | 
